Measurements published in the NIST ThermoML archive (doi:10.1021/je300199a).
Several values for one entry are separate records, joined by “and”; a condition that tells them apart may be missing. Identical values can stand only once.

Conditions: Calculated from knudsen effusion weight loss

[Cu] [copper]
Conditions | vapor or sublimation pressure
1211 K, Crystal | 3.2e-06 kPa
1229 K, Crystal | 2.6e-06 kPa
1249 K, Crystal | 6.5e-06 kPa and 5.9e-06 kPa
1267 K, Crystal | 1e-05 kPa
1281 K, Crystal | 1.4e-05 kPa and 1.5e-05 kPa
1300 K, Crystal | 2.1e-05 kPa and 1.9e-05 kPa
1314 K, Crystal | 2.8e-05 kPa and 2.7e-05 kPa
1329 K, Crystal | 4.5e-05 kPa and 3.8e-05 kPa
1343 K, Crystal | 5.4e-05 kPa and 5.1e-05 kPa
1356 K, Crystal | 7e-05 kPa
1370 K, Liquid | 9e-05 kPa
1379 K, Liquid | 0.00013 kPa
1384 K, Liquid | 0.00012 kPa
1388 K, Liquid | 0.00014 kPa
1397 K, Liquid | 0.00015 kPa
1409 K, Liquid | 0.00018 kPa and 0.00019 kPa
1421 K, Liquid | 0.00023 kPa
1432 K, Liquid | 0.00027 kPa and 0.00028 kPa
1434 K, Liquid | 0.00033 kPa
1443 K, Liquid | 0.00034 kPa
1454 K, Liquid | 0.0004 kPa and 0.00041 kPa
1463 K, Liquid | 0.00047 kPa and 0.00049 kPa
1474 K, Liquid | 0.00055 kPa and 0.00057 kPa
1484 K, Liquid | 0.00065 kPa and 0.0007 kPa
1494 K, Liquid | 0.0007 kPa and 0.0008 kPa
1503 K, Liquid | 0.0008 kPa and 0.0009 kPa
1512 K, Liquid | 0.0008 kPa and 0.0011 kPa
1522 K, Liquid | 0.0013 kPa and 0.0012 kPa
1530 K, Liquid | 0.0015 kPa and 0.0014 kPa
1539 K, Liquid | 0.0016 kPa
1547 K, Liquid | 0.0018 kPa and 0.0019 kPa
1555 K, Liquid | 0.0021 kPa
1565 K, Liquid | 0.0023 kPa and 0.0024 kPa and 0.0027 kPa
1572 K, Liquid | 0.0026 kPa and 0.0028 kPa and 0.0031 kPa
1581 K, Liquid | 0.0029 kPa and 0.0031 kPa and 0.0035 kPa
1588 K, Liquid | 0.0031 kPa and 0.0036 kPa and 0.004 kPa
1596 K, Liquid | 0.0038 kPa and 0.0041 kPa and 0.0045 kPa
1604 K, Liquid | 0.0039 kPa and 0.0046 kPa and 0.005 kPa
1611 K, Liquid | 0.0042 kPa and 0.0052 kPa and 0.0055 kPa
1619 K, Liquid | 0.0046 kPa and 0.0058 kPa and 0.006 kPa
1628 K, Liquid | 0.005 kPa and 0.0066 kPa

O=[Si] [silicon monooxide]
Crystal
Conditions | vapor or sublimation pressure [kPa]
1211 K | 3e-06
1229 K | 1.6e-06
1249 K | 8e-06
1267 K | 1.3e-05
1281 K | 2.2e-05
1300 K | 4e-05
1314 K | 6e-05
1329 K | 9e-05
1343 K | 0.00013
1356 K | 0.0002
1370 K | 0.00028
1384 K | 0.0004
1397 K | 0.0005
1409 K | 0.0007
1421 K | 0.001
1432 K | 0.0013
1443 K | 0.0017
1454 K | 0.0023
1463 K | 0.0029
1474 K | 0.0036
1484 K | 0.005
1494 K | 0.006
1503 K | 0.007
1512 K | 0.009
1522 K | 0.011
1530 K | 0.013
1539 K | 0.015
1547 K | 0.018
1555 K | 0.021
1565 K | 0.024
